Experimental findings from patent US20250018019A1, “TREATMENT OF INTERFERON DRIVEN INFLAMMATION” (The Provost, Fellows, Foundation Scholars and the other …, priority 2023, published 2025) are described below.

Common to all, as to assay type: cell-based, mouse
In assay [1] the test system is BMDMs. The assay can be described thus: Digitonin fractionation, qPCR of mtDNA and mtRNA. On the procedure: (§1) All compounds used DMSO as a vehicle except for 4-hydroxy tamoxifen (EtOH), NAC (PBS), and AOAA for tracing experiments (Media). LPS was used at a concentration of 100 ng/ml for indicated timepoints (2, 3, 4, 6, 8, 24, 48 h). FHIN1 (10 or 20 μM), MMF (50 or 100 μM), DMF (25 μM), AOAA (5 mM), oligomycin (10 μM), CCCP (50 μM) NAC (1 mM), and IMT1 (10 μM) pre-treatments were performed for 3 h prior the addition of LPS. Cells were treated with valinomycin (10 nM) 15 mins before LPS stimulation. Anti-CD210 or IgG control (10 μg/ml) antibodies were added to cells 1 h prior to LPS stimulation. Recombinant mouse IL-10 protein (100 ng/ml) was added to cells at the same time as LPS. Cells were treated with IFN-B1 (220 ng/ml) for 3 h. Cells were treated with C-178 (1 μM) 1 h prior to LPS stimulation or transfection with 2′3′-cGAMP (1.5 μg/ml) for 4 hrs to achieve cGAS-STING activation. Cells were treated with ODN 2088 (1 μM) for 1 hr prior to LPS stimulation or transfection with CPG ODN 1826 (1.5 μg/ml) to achieve TLR9 activation. 3 different timepoints of 4-hydroxy tamoxifen (TAM) (600 nM or 2 μM) or EtOH treatment were performed-these are specified in the individual figure legends. For ‘48 h’ treatments EtOH/TAM was added on day 5 of 6 during the BMDM differentiation protocol. On day 6 they were plated with EtOH/TAM (left overnight) and treated the following day. For ‘72 h’ treatments EtOH/TAM was added on day […] of 6 during the BMDM differentiation protocol. On day 6 they were plated with EtOH/TAM (left overnight) and treated the following day. For ‘96 h’ treatments EtOH/TAM was added on day […] of 6 during the BMDM differentiation protocol. On day 6 they were plated with EtOH/TAM and treated 2 days later.
BMDMs were plated at 0.5×10^6 cells/well and treated as desired. After treatment, cells were washed once with room temperature PBS, before being scraped on ice into ice cold PBS and pelleted at 500×g for 5 mins at 4° C. Supernatant was removed and discarded, and the pellet was resuspended in 400 μl extraction buffer (150 mM NaCl, 50 mM HEPES pH 7.4, 25 μg/ml digitonin). Samples were then placed in a rotating mixer at 4° C. for 10 mins before centrifugation at 2000×g at 4° C. for 5 mins. The resulting supernatant constituted the cytosolic fraction, from which RNA and DNA were isolated using an AllPrep DNA/RNA Mini Kit (Qiagen). Alternatively, the cytosolic fraction was concentrated using Strataclean Resin (Agilent) and analysed by western blot. The pellet constituted a fraction containing membrane-bound organelles which was lysed in RNA lysis buffer for RNA isolation or lysed in western blot lysis buffer for analysis by western blot. To determine the presence of mtRNA and mtDNA in the cytosol, qPCR was performed using primers specific for mitochondrial D-loop on cDNA which had been reverse-transcribed from RNA isolated from the cytosolic fraction (mtRNA) and on DNA isolated from the cytosolic fraction (mtDNA). In both cases, values were normalised using a housekeeping control gene (β-actin) amplified in cDNA which had been reverse-transcribed from RNA isolated from the membrane-bound fraction.

Assay [2] relates to BMDMs. In words: Immunofluorescence, Mitotracker Red and dsRNA. As to conditions: LPS 4 h. Here is the method:
as §1
Cells were plated on 20 mm cover slips in 12-well plates. Cells were treated as required and Mitotracker Red CMXRos (100 nM, Thermo Fisher), was added to medium 30 mins prior to end of cell treatments. After 30 min incubation, cells were washed three times with warm PBS. Cells were subsequently fixed for 10 mins with 4% paraformaldehyde/PBS at 37° C. Cells were washed three times with PBS and permeabilized for 1 hour in block solution (1% BSA, 22.52 mg/ml glycine, 0.1% tween 20 in PBS). Anti-dsRNA antibody (Merck) was diluted 1/60 in block solution and incubated with cells overnight at room temperature. Cells were washed three times with PBS for 5 mins/wash. […] Images were analysed using the LAS X Life Science Microscope Software Platform (Leica). The same microscope instrument settings were used for all samples and all images were analysed using the same settings. […] Quantification of dsRNA or Mitotracker Red CMXRos signal intensity was performed using the measure function in ImageJ 1.53t (NIH).

The subject of a further assay is MAVS. The assay can be described thus: MAVS oligomerisation. As to conditions: BMDMs pre-treated, LPS 4 h. On the procedure:
BMDMs were plated at 1×10^6 cells/well in technical triplicate and treated as desired. After treatment, cells were washed twice with 200 μl cold PBS before being lysed in crosslinking lysis buffer (50 mM HEPES, 0.5% triton X-100, 1X protease inhibitor cocktail). Samples were placed on ice for 15 mins. Lysates were centrifuged for 15 mins at 6000×g at 4° C. and the supernatant was removed and frozen down as the ‘soluble fraction.’ 20 μl of the soluble fraction was mixed with 5 μl of sample lysis buffer (0.125 M Tris pH 6.8, 10% glycerol, 0.02% SDS, 5% DTT) and run on a 10% gel. The insoluble pellet was resuspended in HEPES (50 mM) and washed 3 times by centrifuging at 6000×g at 4° C. and removing the supernatant each time. After the final wash, the pellet was resuspended in 500 μl crosslinking buffer (50 mM HEPES, 150 mM NaCl) and disuccinimidyl suberate (DSS, Thermo Fisher, made up in anhydrous DMSO) was added to the final concentration of 2 mM. Immediately following the addition of DSS, the sample was inverted several times and incubated for 45 mins at 37° C. The sample was then centrifuged for 15 mins at 6000×g at 4° C., before the supernatant was removed and the pellet was resuspended in 30 μl sample lysis buffer. The resuspended ‘insoluble fraction’ was subsequently boiled for 5 mins at 95° C. before being run on a gel.

Counter-ions that a name gives are not always drawn.

With `CCOC(=O)[C@@]12CCCC=C1N(Cc1ccc(-c3ccccc3)cc1)C(=O)[C@H]2CC(=O)NC` [FHIN1, Fumarate hydratase-IN-1], in the assay with BMDMs [1] (BMDMs pre-treated, LPS 4 h), the “mtRNA in whole cell fraction” value is “not in the whole cell fraction”. For the same compound, in the assay on BMDMs [1] (digitonin-fractionated BMDMs), the “mtDNA in cytosolic extracts (D-loop)” value was “increase” and the “mtRNA in cytosolic extracts” value is “increased”. For the same compound, the “staining intensity of mitotracker RED (mtRED), MMP-dependent dye” value in the assay on BMDMs [2] (BMDMs pre-treated 3 h) is “increased staining intensity”. Further, in the assay on BMDMs [2] (BMDMs pre-treated, relative to DMSO control), the “dsRNA accumulation (immunofluorescence)” value is reported as “accumulation”. Besides, the MAVS oligomerisation entry with MAVS was “observed MAVS oligomerisation”.
